≈ marks a conversion by molar mass, not a printed value. Read-outs that look alike come from different tables or passages of the source.
Assays:
[1] = Maximum solubility of ITZA and azole analogues in solvents (HPLC); format: physicochemical; conditions: for solubility thermodynamic at 1 h: within 1 hour at RT, read-out: Maximum equilibrium solubility
Method: ITZA and its analogues were dissolved in various solvents incubated at 37° C. for 30 minutes, cooled down to room temperature, centrifuged at 14,000 rpm for 1 min. The supernatant was analyzed using HPLC to determine the maximum solubility of ITZA and its azole analogues.
In a first step the maximum ITZA solubility in various single solvents was determined. To this end, ITZA and its analogs were dissolved in various solvents, incubated at 37° C. for 30 minutes, cooled down to room temperature, centrifuged at 14,000 rpm for 1 min. The supernatant was analyzed using HPLC to determine the maximum solubility of the respective agent.
The solubility of ITZA was determined in several individual vehicles. Briefly, a known amount of ITZA drug, formulated as a powder (Sigma Inc., St Louis, Mo.), was equilibrated in the respective solvent at RT over 1-4 hours. An aliquot was removed, filtered, and prepared for HPLC to determine maximum solubility at room temperature. Based on the ITZA solubility in each vehicle, different solvents were mixed according to the cosolvency principle in an attempt to arrive at an enhanced stable solubility. […] The stock formulation was then diluted with a final diluent, i.e. NS or D5W or DlOW, to yield a stable use-formulation. The desired range of the final use-formulation was between 1 and 5 mg/mL, as it would result in a final volume that could be safely and conveniently infused intravascularly.
An excess of ITZA as a powder was added to a multitude of chemical solvents (Table 1) at RT. Each mixture was intermittently vortexed, placed in a dark environment and checked visually for up to 4 hours for evidence of solubilization. Following centrifugation to remove solid particles, small samples were withdrawn after consecutive time intervals and the ITZA concentration was determined by HPLC as described.

[2] = Stability of ITZA/POSA in solvent vehicles (HPLC); format: physicochemical
Method: The ITZA in solvent H3 was incubated in sealed tubes. […] For both short-term and long-term stability studies, triplicate samples at various time points were analyzed quantitatively by HPLC after appropriate dilutions. In the next step the stability of ITZA (at approximately 4 mg/mL) in a preferred composite solvent at a clinically relevant stock concentration by itself, and after dilution with a similar volume of a clinically acceptable infusion fluid, was determined at room temperature. ITZA was dissolved at a final stock concentration of 2-6 mg/mL in benzyl alcohol with acidified EtOH/PEG-400 (prototype ITZA stock solvent vehicle) and incubated at RT and at 40° C. The resulting ITZA concentrations were measured by HPLC in samples taken immediately after solubilization, then hourly for 8 hours, and then at gradually increasing time intervals for up to several days (weeks), depending on the initial rate of solubilization/degradation in the respective solvent system.

[3] = system: Candida cruzei (ATCC strain 6258); test: Yeast susceptibility test, MIC (CLSI standard); format: cell-based; conditions: tested range 38 μg/mL to 0.03 μg/mL, read out at 24 hours, average of three experiments
Method: (§1) Briefly, susceptibility tests were set-up using a standardized methodology (CLSI […] standard). Drugs were diluted into RPMI-Mops medium (Yeast One Broth (Sensititer, product Y3462, Trek Diagnostic Systems, Cleveland, Ohio) Sensititer Lot number 151416SA-expiration date 2011-01). Two different strains of yeast were tested, the standardized evaluation/read out was performed at 24 hours after the start of each culture. The tests were repeated twice and all MIC (minimum inhibitory concentration) values are reported as an average of the three experiments.

Candida parapsilosis = test: Yeast susceptibility test, MIC (CLSI standard); format: cell-based; conditions: tested range 38 μg/mL to 0.03 μg/mL, read out at 24 hours, average of three experiments
Method: as §1

[4] = system: Aspergillus fumigatus (ATCC strain 90906); test: Mold susceptibility test, MIC (CLSI M38A); format: cell-based
Method: Two hyaline molds were tested with a standard read out at 48 hrs:
Tested drug range: 75 μg/mL to 0.07 μg/mL
To further determine the antifungal activity of the compounds in the new formulation systems we investigated the efficacy of the various agents against additional strains of mucor and Aspergillus (9/-16-9/20/2010) (The Rhizomucor was a clinical isolate from a patient isolate) and the Aspergillus fumigatus (ATCC strain 90906) used was a repeat from the previously described experiment. Again, the susceptibility tests were set-up using the standardized test method (CLSI M38A). The used drugs were provided in the described H3 final use-formulation that has been previously described. All drugs were diluted in RPMI-Mops medium (YeastOne, Sensititer Lot 151416SA, expiration date January 2011).
As before two different molds were tested with a standard read out at 48 hr: • Drug dilution range 75 μg/mL to 0.07 μg/mL. • Aspergillus fumigatus (ATCC strain 90906) Zygomycete (Clinical Lab isolate, MDACC) […]

[5] = cited from earlier work
[6] = Plasma pharmacology after IV injection in mice; conditions: IV dose of 5 mg/kg
Method: Swiss Webster mice were used for pharmacokinetic studies of ITZA and its analogs. The dilation of the vein was accomplished by warming up the mice using a heat lamp. […] Mice were allowed to recover and blood samples were obtained through cardiac puncture under general anesthesia with Isoflurane/oxygen by vaporizer at various time points. Plasma was obtained by centrifugation of blood sample at 3,200 rpm for 5 min. at 4° C. Plasma proteins were precipitated by adding acetonitrile (twice the volume of plasma). The mixture was vortexed for 30 seconds and centrifuged for 5 min. at 14,000 rpm. The supernatant was saved and was injected into the HPLC to determine the respective drug concentrations.
Unless specified, the analogous experiments were performed using POSA as an alternative to ITZA; Swiss Webster mice of both sexes with a body weight of 25-30 g were used for the in vivo pharmacology experiments (Harlan-Sprague-Dawley, Houston, Tex.). The animals were allowed a minimum of 7 days after arrival to accommodate to the new environment and allowed free access to commercial feed and tap water prior to and during the experimentation period. The animals were housed in an Association for the Assessment and Accreditation of Laboratory Animal Care International (AAALAC)-approved facility that meets the requirements of the USDA, NIH, and DHHS.
The ITZA dose of 5 mg/kg BW was determined to be a suitable test dose that could be administered to the mice as a slow (3-4 min) IV bolus injection without requiring sedation, but could be performed with only minimal physical restraint of the animals in a standard funnel-type cage.
The ITZA was formulated in the H3 solvent system described above as the preferred solvent to a stock concentration of 4-5 mg/mL and then diluted with NS (ratio 1:1) so the intended dose (5.0 mg/kg BW) could be injected in a tail vein in a total volume of approximately 100 μL. […] No sedative premedication was used for the mice in this experiment to avoid the possible induction of microsomal liver enzymes that could modify ITZA metabolism. Thus, the animals were unanesthetized, being only physically restrained during and immediately following the drug injection.
Blood samples (0.5-1.0 mL) were drawn through cardiac puncture into heparinized tubes at selected time points prior to the drug infusion (“blank”), and from 5 min to 1 hour after drug injection for determination of ITZA concentrations, and for 5 min to about 7 hrs in the POSA experiment. The mice were exposed to 2% -4% isoflurane for general anesthesia. Blood samples were obtained through cardiac puncture and immediately deposited in heparinized microcentrifuge tubes.

SMILES: CCC(C)n1ncn(-c2ccc(N3CCN(c4ccc(OCC5COC(Cn6cncn6)(c6ccc(Cl)cc6Cl)O5)cc4)CC3)cc2)c1=O (stereo not drawn) [ITZA, itraconazole]
- solubility ([1]; 2M citric acid, aqueous buffer, thermodynamic from solid, in 2M citric acid, read-out: Maximum solubility): 3.22 mg/mL (≈ 4.56 mM)
- solubility ([1]; 6N HCl, aqueous buffer, thermodynamic from solid, in 6N HCl, read-out: Maximum solubility): 7.41 mg/mL (≈ 10.5 mM)
- solubility ([1]; 25% acetic acid, aqueous with cosolvent or surfactant or cyclodextrin, thermodynamic from solid, in 25% Acetic acid, read-out: Maximum solubility): 0.3 mg/mL (≈ 0.425 mM)
- solubility ([1]; 50% acetic acid, aqueous with cosolvent or surfactant or cyclodextrin, thermodynamic from solid, in 50% Acetic acid, read-out: Maximum solubility): 12.9 mg/mL (≈ 18.3 mM)
- solubility ([1]; Intralipid, oil or lipid, thermodynamic from solid, in Intralipid, read-out: Maximum solubility): 0.15 mg/mL (≈ 0.213 mM)
- solubility ([1]; PEG 200, organic solvent or mixture, thermodynamic from solid, in PEG 200, read-out: Maximum solubility): 1.45 mg/mL (≈ 2.05 mM)
- solubility ([1]; PEG 300, organic solvent or mixture, thermodynamic from solid, in PEG 300, read-out: Maximum solubility): 1.81 mg/mL (≈ 2.57 mM)
- solubility ([1]; PEG 400, organic solvent or mixture, thermodynamic from solid, in PEG 400, read-out: Maximum solubility): 2.51 mg/mL (≈ 3.56 mM)
- solubility ([1]; acetic acid, organic solvent or mixture, thermodynamic from solid, in Acetic acid, read-out: Maximum solubility): 144 mg/mL (≈ 205 mM)
- solubility ([1]; benzyl alcohol, organic solvent or mixture, thermodynamic from solid, in Benzyl alcohol, read-out: Maximum solubility): > 128 mg/mL
- Solubility (in words) ([1]; diluted acetic acid, H2O, Normal saline, 5% Dextrose, Polyoxyethylated castor oil, Propylene glycol, 2 M citric acid, Ethanol, HCl, PEG400, Intralipid): insignificant solubility
- solubility ([1]; ethanol, organic solvent or mixture, thermodynamic from solid, in Ethanol, read-out: Maximum solubility): 0.41 mg/mL (≈ 0.581 mM)
- Maximum solubility ([1]; in 10% Acetic acid): 0.86 mg/mL
- Maximum solubility ([1]; in Polyoxyethylated castor oil): 0.89 mg/mL
- solubility ([1]; normal saline, saline or isotonic, thermodynamic from solid, in Normal saline, read-out: Maximum solubility): 0.48 mg/mL (≈ 0.68 mM)
- solubility ([1]; organic solvent or mixture, thermodynamic from solid, benzyl alcohol containing solvent H3, room temp, read-out: Maximum solubility): ~31.4 mg/mL (≈ 44.5 mM)
- solubility thermodynamic at 1 h ([1]; organic solvent or mixture, thermodynamic from solid, Benzyl alcohol): > 100 mg/mL
- solubility thermodynamic at 1 h ([1]; organic solvent or mixture, thermodynamic from solid, pure (glacial) acetic acid): > 100 mg/mL
- solubility ([1]; propylene glycol, organic solvent or mixture, thermodynamic from solid, in Propylene glycol, read-out: Maximum solubility): 0.14 mg/mL (≈ 0.198 mM)
- solubility ([1]; solvent B (with Tween 80), aqueous with cosolvent or surfactant or cyclodextrin, thermodynamic from solid, solvent B (with Tween 80), read-out: Maximum solubility): 29 mg/mL (≈ 41.1 mM)
- solubility at 30 min ([1]; solvent H3D (no benzyl alcohol), organic solvent or mixture, thermodynamic from solid, solvent H3D (no benzyl alcohol), single determination, read-out: Azole solubility, [Drug] mg/mL): 19.1 mg/mL (≈ 27.1 mM)
- solubility at 30 min ([1]; solvent H3D (no benzyl alcohol), organic solvent or mixture, thermodynamic from solid, solvent H3D (no benzyl alcohol), read-out: Azole solubility, Average mg/mL): 19 mg/mL (≈ 26.9 mM)
- Azole solubility, [Drug] mg/mL ([1]; solvent H3D (no benzyl alcohol), single determination): 18.9 mg/mL
- solubility at 30 min ([1]; solvent H3G (no benzyl alcohol), organic solvent or mixture, thermodynamic from solid, solvent H3G (no benzyl alcohol), single determination, read-out: Azole solubility, [Drug] mg/mL): 19.2 mg/mL (≈ 27.2 mM)
- solubility at 30 min ([1]; solvent H3G (no benzyl alcohol), organic solvent or mixture, thermodynamic from solid, solvent H3G (no benzyl alcohol), read-out: Azole solubility, Average mg/mL): 19.3 mg/mL (≈ 27.4 mM)
- Azole solubility, [Drug] mg/mL ([1]; solvent H3G (no benzyl alcohol), single determination): 19.4 mg/mL
- solubility ([1]; solvent J1, organic solvent or mixture, thermodynamic from solid, solvent J1, read-out: Solubility): 18.1 mg/mL (≈ 25.7 mM)
- solubility ([1]; solvent J2): 15.99 mg/mL (≈ 22.7 mM)
- solubility ([1]; solvent J3): 10.11 mg/mL (≈ 14.3 mM)
- solubility ([1]; solvent J4, organic solvent or mixture, thermodynamic from solid, solvent J4, read-out: Solubility): 6.09 mg/mL (≈ 8.63 mM)
- solubility ([1]; solvent J5, organic solvent or mixture, thermodynamic from solid, solvent J5, read-out: Solubility): 3.54 mg/mL (≈ 5.02 mM)
- solubility ([1]; solvent K, organic solvent or mixture, thermodynamic from solid, solvent K, RT, read-out: Maximum solubility): 11.1 mg/mL (≈ 15.7 mM)
- Maximum solubility ([1]; solvent L): 5 mg/mL
- Stability (% remaining) ([2]; 2 mg/mL, normal saline as final dilution solution, at least 24 hours at RT): more than 90%
- stability of ITZA ([2]; H3D/5% dex., day 3): 108%
- stability of ITZA ([2]; H3D/sal., day 4): 102%
- stability of ITZA ([2]; H3G/10% dex., day 1): 102%
- Stability (%) ([2]; parent solvent H3, approximately 4 mg/mL, room temperature, 48 hrs): 96%
- Stability (%) ([2]; parent solvent H3, approximately 4 mg/mL, room temperature, 7 days (1 w)): 91%
- Stability (%) ([2]; parent solvent H3, approximately 4 mg/mL, room temperature, 9 days): 84%
- Stability (%) ([2]; parent solvent H3, approximately 4 mg/mL, room temperature, 18 days): 80%
- Stability (%) ([2]; solvent H3, approximately 4 mg/mL, 40° C., 72 hr): 76%
- Stability (%) ([2]; solvent H3, approximately 4 mg/mL, 40° C., 10 days): 59%
- Stability (%) ([2]; solvent H3, approximately 4 mg/mL, 40° C., 11 days): 58%
- Stability (%) ([2]; solvent H3, approximately 4 mg/mL, 40° C., time 0): 100%
- Stability (%) ([2]; solvent H3/normal saline (1:1), approximately 2.0 mg/mL, RT, 6 hrs): 101%
- MIC [3]: 0.07 mg/L (≈ 9.92e-05 mM)
- MIC ([3]; listed as ITZA*): 0.15 mg/L (≈ 0.000213 mM)
- MIC (Candida parapsilosis): 0.03 mg/L (≈ 4.25e-05 mM)
- MIC (Candida parapsilosis; listed as ITZA*): 0.07 mg/L (≈ 9.92e-05 mM)
- MIC ([4]; Aspergillus fumigatus, ATCC90906, 48 h, tested range 75 μg/mL to 0.07 μg/mL, read out at 48 hrs, first experiment, read-out: MIC): 1.2 mg/L (≈ 0.0017 mM)
- MIC ([4]; extended mold testing (repeat), H3 final use-formulation, range 75 μg/mL to 0.07 μg/mL, 48 hr): 1.2 mg/L (≈ 0.0017 mM)
- MIC ([4]; extended mold testing (repeat), H3 final use-formulation, range 75 μg/mL to 0.07 μg/mL, 48 hr, listed as ITZA*): 0.3 mg/L (≈ 0.000425 mM)
- MIC ([4]; tested range 75 μg/mL to 0.07 μg/mL, read out at 48 hrs, first experiment): 0.6 mg/L (≈ 0.00085 mM)
- known plasma half-life ([5]; literature (Ref 24, 32, 42, 45)): 10 to 11 h
- bioavailability ([5]; oral preparations, literature): approximately 50%
- time plasma concentrations remain in the fungi-toxic range [6]: in excess of one hour

— patent publication US10307418B2, “Azole pharmaceutical formulations for parenteral administration and methods for preparing and using the same as treatment of diseases sensitive to azole compounds” (Platform Brightworks Two, Ltd., priority 2010, dated 2019)
